Measurements published in patent US12077503B2, “Substituted cyclic amides and their use as herbicides” (FMC CORPORATION, priority 2015, dated 2024).

O=C1NC[C@H](c2ccc(C(F)(F)F)cn2)[C@H]1C(=O)Nc1cccc(F)c1F [Compound 1104]
melting point: 192 to 196 °C

CC(O)c1ccccc1NC(=O)C1C(=O)N(C)CC1c1cccc(C(F)(F)F)c1 (stereo not shown) [Compound 1147]
melting point: 107.5 to 115.4 °C

C=C(C)c1ccc([C@H]2CN(C)C(=O)[C@@H]2C(=O)Nc2ccc(F)c(F)c2F)cc1 [Compound 1148]
melting point: 132 to 136 °C

Cc1cc([C@H]2CN(C)C(=O)[C@@H]2C(=O)Nc2cccc(F)c2F)no1 [Compound 1237]
melting point: 97 to 101 °C
